Values after ≈ are worked out from the molar mass of the structure shown. “Also recorded” adds a separate entry of the source. Marks after values point to notes of the source that are not given here.
Legend:
[1] = test system: primary cultured rat cerebrocortical neurons; experiment: Inhibition of xanthine/xanthine oxidase-induced neurotoxicity (LDH release); assay type: cell-based, Sprague-Dawley rat; conditions: for IC50: Cerebrocortical neuron, isolated compounds, rat cerebrocortical neurons, LDH
Protocol: (§1) Namely, the cerebral cortices of Sprague-Dawley rat embryos at 16-18 days of gestation were isolated, and meninges […] removed therefrom using a dissecting microscope. The tissue thus obtained was separated into single cells by trituration using a Pasteur pipette in a medium (MEM, Gibco BRL) containing 25 mM glucose, 5% FBS, 5% horse serum and 2 mM L-glutamine. […] A portion of the culture solution was replaced with a fresh culture media twice per week, and cultures were treated with 10 μM cytosine arabinoside for 24 to 72 hours at day 7 to 9 after planting to inhibit the growth of non-neuronal cells. The cultured cells at day 10 to 14 after planting were used in experiments. […] Data were calculated as percentages of the control LDH activity in the culture medium exposed to the respective oxidative insult in the absence of test principles. The inhibitory activity of a test sample for the oxidative nerve cell damage was calculated from the amount of released LDH relative to that of an unchanged control.

[2] = test system: primary cultured rat cerebrocortical neurons; experiment: Inhibition of hydrogen peroxide-induced neurotoxicity (LDH release); assay type: cell-based, Sprague-Dawley rat; conditions: for IC50: Cerebrocortical neuron
Protocol: as §1

[3] = Superoxide anion radical scavenging activity (xanthine/xanthine oxidase, NBT); conditions: for Superoxide anion radical scavenging activity (IC50): isolated compounds
[4] = DPPH radical scavenging activity (electron donating ability); conditions: for DPPH radical scavenging activity (IC50): isolated compounds
[5] = test system: cultured rat cerebral hippocampus cells and cortex cells; experiment: Inhibition of NMDA-induced neurotoxicity (LDH release); assay type: cell-based, SD rat; conditions: for inhibition at 9 µg/mL / inhibition at 30 µg/mL: Rattus norvegicus, 100 μM NMDA; for inhibition at 9 µg/mL: 9 μg/Ml; for inhibition at 30 µg/mL: 30 μg/Ml
Protocol: The hippocampus and cortex were extracted from the cerebral tissue of 17-day old fetus of a pregnant SD rat using a microscope. The extracted hippocampus and cortex were each separated into discrete single cells using a pipette, and the cells obtained therefrom by centrifuging were inoculated into a 96-well plate coated with poly-L-lysine. […] After 72 hours incubation, the medium was replaced with the same medium but lacking glutamate, and the cells were further incubated. […] The cultured cells prepared in Reference Example 6 were treated with 100 μM NMDA (Sigma) for 2 hours to induce cerebral cell damage, with or without the presence of a fixed amount of a test sample. After 24 hours, the amount of LDH released into the culture solution was measured using an LDH measuring kit (Boehringer Mannheim).

[6] = test system: rat model of transient focal cerebral ischemic damage; experiment: Transient focal cerebral ischemia (middle cerebral artery occlusion and reperfusion), TTC infarction volume and swelling; assay type: in vivo, Sprague-Dawley rat; conditions: one day after occlusion; for Corrected total infarction volume: corrected for swelling; for Corrected total infarction volume / Swelling ratio: rat MCAO, 10 mg/kg intraperitoneally; for Infarction volume, cerebral cortex / Infarction volume, corpus striatum / Infarction volume, total: rat MCAO 120 min and reperfusion, 10 mg/kg intraperitoneally about 30 min after ischemia
[7] = test system: rat model of transient focal cerebral ischemic damage; experiment: Neurological score after middle cerebral artery occlusion; conditions: for Neurological score: 10 point means normal, average ± standard error
[8] = test system: cultured rat cerebral hippocampus cells and cortex cells; experiment: Inhibition of growth factor withdrawal-induced neurotoxicity (LDH release); assay type: cell-based, SD rat
Protocol: The hippocampus and cortex were extracted from the cerebral tissue of 17-day old fetus of a pregnant SD rat using a microscope. The extracted hippocampus and cortex were each separated into discrete single cells using a pipette, and the cells obtained therefrom by centrifuging were inoculated into a 96-well plate coated with poly-L-lysine. […] After 72 hours incubation, the medium was replaced with the same medium but lacking glutamate, and the cells were further incubated. […] The cultured cells prepared in Reference Example 6 were cultured in […] containing 2% B27 supplementary nutrient, and then, the culture solution was replaced with the same […] but lacking B27 supplementary nutrient to induce cell death caused by undernutrition. After 24 hours, the amount of LDH released by cell necrosis was measured using an LDH measuring kit (Boehringer Mannheim) to quantify the extent of cell death.

[9] = isolated compounds, rat cerebrocortical neurons, LDH
[10] = 30 min after occlusion of middle cerebral artery
[11] = 24 hour after occlusion of middle cerebral artery, 10 mg/kg intraperitoneally

Compound	Superoxide anion radical scavenging activity (IC50) [3] [mg/L]	DPPH radical scavenging activity (IC50) [4] [mg/L]	IC50 [1] [mg/L]	IC50 [2, 9] [mg/L]	Inhibition of xanthine/xanthine oxidase-induced neurotoxicity (in words) [1]	Inhibition of NMDA-induced neurotoxicity (in words) [5]	inhibition at 9 µg/mL [5] [%]	inhibition at 30 µg/mL [5] [%]	Corrected total infarction volume [6]	Infarction volume, cerebral cortex [6]	Infarction volume, corpus striatum [6] [mm^3]	Infarction volume, total [6]	Swelling ratio [6] [%]	Inhibition of hydrogen peroxide-induced neurotoxicity (in words) [2]	Superoxide anion radical scavenging activity (in words) [3]	Neurological score [7, 10]	Neurological score [7, 11]	DPPH radical scavenging activity (in words) [4]	further results
O=C1c2c(O)cc(O)cc2O[C@H](c2ccc(O)cc2)[C@H]1O [Dihydrokaempferol, dihydrokaempferol]	>50	>50	> 300	> 300	–	–	–	–	–	–	–	–	–	–	–	–	–	–	–
O=C1c2c(O)cc(O)cc2O[C@H](c2ccc(O)c(O)c2)[C@H]1O [Dihydroquercetin, dihydroquercetin]	2.48	4.49	16.6 (≈ 54.6 µM)	7.8 (≈ 25.6 µM)	strongly inhibit	inhibit	33	47	130.7 ± 13.1 mm^3	169.4 ± 12.7 mm^3	30.1 ± 4.3	199.5 ± 16.5 mm^3	11.9 ± 0.5	strongly inhibit	potent	2.33 ± 0.16	3.00 ± 0.33	potent	–
COc1c(-c2ccc(O)cc2)oc2cc(O)cc(O)c2c1=O [Kaempferol 3-methyl ether, kaempferol 3-methyl ether]	>50	>50	–	–	–	–	–	–	–	–	–	–	–	–	–	–	–	–	Inhibition of hydrogen peroxide-induced neurotoxicity (IC50) [2, 9]: >300 mg/L
O=c1c(O)c(-c2ccc(O)cc2)oc2cc(O)cc(O)c12 [Kaempferol, kaempferol]	>50	>50	24.9 (≈ 87 µM)	29.7 (≈ 104 µM)	strongly inhibit	–	–	–	–	–	–	–	–	strongly inhibit	–	–	–	–	–

Further lines, with some results ahead:

Superoxide anion radical scavenging activity (IC50) [3] [mg/L]	DPPH radical scavenging activity (IC50) [4] [mg/L]	Compound	IC50 [1] [mg/L]	IC50 [2, 9] [mg/L]	Inhibition of xanthine/xanthine oxidase-induced neurotoxicity (in words) [1]	Inhibition of NMDA-induced neurotoxicity (in words) [5]	inhibition at 9 µg/mL [5] [%]	inhibition at 30 µg/mL [5] [%]	Corrected total infarction volume [6]	Infarction volume, cerebral cortex [6]	Infarction volume, corpus striatum [6] [mm^3]	Infarction volume, total [6]	Swelling ratio [6] [%]	Inhibition of hydrogen peroxide-induced neurotoxicity (in words) [2]	Superoxide anion radical scavenging activity (in words) [3]	Neurological score [7, 10]	Neurological score [7, 11]	DPPH radical scavenging activity (in words) [4]	further results
>50	2.89	O=c1c(O)c(-c2ccc(O)c(O)c2)oc2cc(O)cc(O)c12 [Quercetin, quercetin]	5.5 (≈ 18.2 µM)	4.1 (≈ 13.6 µM)	strongly inhibit	–	–	–	110.6 ± 15.8 mm^3	130.5 ± 18.6 mm^3	30.1 ± 4.9	161.1 ± 21.4 mm^3	9.1 ± 1.1	strongly inhibit	–	2.44 ± 0.24	4.56 ± 0.53	potent	–
4.77	3.76	COc1c(-c2ccc(O)c(O)c2)oc2cc(O)cc(O)c2c1=O [Quercetin 3-methyl ether, quercetin 3-methyl ether]	0.65 (≈ 2.06 µM)	0.6 (≈ 1.9 µM)	strongly inhibit; also recorded: highest inhibitory activity	inhibit	21	54	81.6 ± 17.8* mm^3	81.2 ± 20.8* mm^3	28.9 ± 3.1	110.1 ± 22.9* mm^3	5.8 ± 0.7	strongly inhibit; also recorded: highest inhibitory activity	potent	2.36 ± 0.15	4.81 ± 0.44	potent	Inhibition of growth factor withdrawal-induced neurotoxicity (in words) [8]: inhibited; inhibition at 9 µg/mL ([8]; Rattus norvegicus, 9 μg/Ml): 31%; inhibition at 30 µg/mL ([8]; Rattus norvegicus, 30 μg/Ml): 86%; Neurological score compared with the control (in words) [7]: significantly higher
